Data published in PubChem BioAssay AID1259407 (Chemical Carcinogenesis Research Information System (CCRIS), 2018).
Calls of active or inactive are those of the source. No rule for the calls is given here.

System: CCRIS mutagenicity, Ames/micronucleus/aberration tests
Test: CCRIS mutagenicity studies
[1] = Test System: AMES SALMONELLA TYPHIMURIUM, Strain/Indicator: TA98, Metabolic Activation: NONE, Method: STANDARD PLATE
[2] = Test System: AMES SALMONELLA TYPHIMURIUM, Strain/Indicator: TA98, Metabolic Activation: RAT, LIVER, S-9, Method: STANDARD PLATE
[3] = Test System: AMES SALMONELLA TYPHIMURIUM, Strain/Indicator: TA100, Metabolic Activation: NONE, Method: STANDARD PLATE
[4] = Test System: AMES SALMONELLA TYPHIMURIUM, Strain/Indicator: TA100, Metabolic Activation: RAT, LIVER, S-9, Method: STANDARD PLATE
[5] = Test System: AMES SALMONELLA TYPHIMURIUM, Strain/Indicator: TA1535, Metabolic Activation: NONE, Method: STANDARD PLATE
[6] = Test System: AMES SALMONELLA TYPHIMURIUM, Strain/Indicator: TA1535, Metabolic Activation: RAT, LIVER, S-9, Method: STANDARD PLATE
[7] = Test System: AMES SALMONELLA TYPHIMURIUM, Strain/Indicator: TA102, Metabolic Activation: NONE, Method: STANDARD PLATE
[8] = Test System: AMES SALMONELLA TYPHIMURIUM, Strain/Indicator: TA1537, Metabolic Activation: NONE, Method: STANDARD PLATE

Cc1cc(C)c(N)c(C)c1N
mutagenic call (Test System: AMES SALMONELLA TYPHIMURIUM, Strain/Indicator: TA97, Metabolic Activation: NONE, Method: STANDARD PLATE): inactive; negative | mutagenic call (Test System: AMES SALMONELLA TYPHIMURIUM, Strain/Indicator: TA97, Metabolic Activation: RAT, LIVER, S-9, Method: STANDARD PLATE): active; positive | mutagenic call [1]: inactive; negative | mutagenic call [2]: active; positive | mutagenic call [3]: active; positive | mutagenic call [4]: active; positive | mutagenic call [5]: active; positive | mutagenic call [6]: active; positive

NNc1nc(-c2ccc([N+](=O)[O-])cc2)cs1
mutagenic call (Test System: AMES SALMONELLA TYPHIMURIUM, Strain/Indicator: TA98, Metabolic Activation: RAT, LIVER, S-9, KC500 OR PHENOBARBITAL, Method: LIQUID SUSPENSION): active; positive | mutagenic call (Test System: AMES SALMONELLA TYPHIMURIUM, Strain/Indicator: TA100, Metabolic Activation: RAT, LIVER, S-9, KC500 OR PHENOBARBITAL, Method: LIQUID SUSPENSION): active; positive

Cc1cc(N=Nc2ccccc2)c(N)cc1N
mutagenic call (Test System: AMES SALMONELLA TYPHIMURIUM, Strain/Indicator: TA100, Metabolic Activation: HUMAN, LIVER, S-9, Method: PREINCUBATION): inactive; negative | mutagenic call (Test System: AMES SALMONELLA TYPHIMURIUM, Strain/Indicator: TA100, Metabolic Activation: RAT, LIVER, HEPATOCYTES, Method: PREINCUBATION): inactive; negative | mutagenic call (Test System: AMES SALMONELLA TYPHIMURIUM, Strain/Indicator: TA100, Metabolic Activation: RAT, LIVER, S-9, BETA-NAPHTHOFLAVONE, Method: PREINCUBATION): active; positive | mutagenic call (Test System: AMES SALMONELLA TYPHIMURIUM, Strain/Indicator: TA100, Metabolic Activation: RAT, LIVER, S-9, PHENOBARBITAL, Method: PREINCUBATION): active; positive | mutagenic call (Test System: AMES SALMONELLA TYPHIMURIUM, Strain/Indicator: TA100, Metabolic Activation: RAT, LIVER, S-9, Method: PREINCUBATION): active; positive | mutagenic call (Test System: UDS RODENT HEPATOCYTES, Strain/Indicator: THY INCORP, Metabolic Activation: NONE, Method: AUTORADIOGRAPHY): active; positive

O=[N+]([O-])c1ccc(-c2ccc([N+](=O)[O-])cc2)cc1
mutagenic call (Test System: AMES SALMONELLA TYPHIMURIUM, Strain/Indicator: TA98(1,8-DNP6), Metabolic Activation: NONE, Method: STANDARD PLATE): active; positive | mutagenic call (Test System: AMES SALMONELLA TYPHIMURIUM, Strain/Indicator: TA98(NR), Metabolic Activation: NONE, Method: STANDARD PLATE): inactive; negative | mutagenic call (Test System: AMES SALMONELLA TYPHIMURIUM, Strain/Indicator: TA98, Metabolic Activation: NONE, Method: PREINCUBATION): active; positive | mutagenic call [1]: active; positive | mutagenic call (Test System: AMES SALMONELLA TYPHIMURIUM, Strain/Indicator: TA98, Metabolic Activation: RAT, LIVER, S-9, PCB (10%), Method: PREINCUBATION): active; positive

CC(=O)Nc1ccc(Cc2ccc(NC(C)=O)cc2)cc1
mutagenic call [1]: inactive; negative | mutagenic call (Test System: AMES SALMONELLA TYPHIMURIUM, Strain/Indicator: TA98, Metabolic Activation: RAT, LIVER, S-9, PCB, Method: STANDARD PLATE): inactive; negative | mutagenic call [3]: inactive; negative | mutagenic call (Test System: AMES SALMONELLA TYPHIMURIUM, Strain/Indicator: TA100, Metabolic Activation: RAT, LIVER, S-9, PCB, Method: STANDARD PLATE): inactive; negative

OC[C@H]1O[C@@H](n2cnc3c(NO)ncnc32)[C@H](O)[C@@H]1O
mutagenic call [1]: active; positive | mutagenic call (Test System: AMES SALMONELLA TYPHIMURIUM, Strain/Indicator: TA100(TN5-1,8-DNP1011), Metabolic Activation: NONE, Method: STANDARD PLATE): active; positive | mutagenic call (Test System: AMES SALMONELLA TYPHIMURIUM, Strain/Indicator: TA100(TN5-1,8-DNP1012), Metabolic Activation: NONE, Method: STANDARD PLATE): active; positive | mutagenic call [3]: active; positive | mutagenic call [7]: inactive; negative

Nc1ccn([C@@H]2O[C@H](CO)[C@@H](O)C2O)c(=O)n1 (stereo partly specified)
mutagenic call (End Point: IN VITRO MICRONUCLEUS, Test System: CHINESE HAMSTER V79 CELLS, Metabolic Activation: NONE): active; positive | mutagenic call (End Point: IN VITRO MICRONUCLEUS, Test System: V79 CELLS, Metabolic Activation: NONE): active; positive | mutagenic call (End Point: In vitro chromosomal aberrations, Test System: Human lymphocytes, Metabolic Activation: None): active; positive (structural changes) (effects significant without chm) | mutagenic call (End Point: In vitro micronucleus, Test System: Human lymphoblastoid TK6 cells, Metabolic Activation: None): active; positive (p<0.001) | mutagenic call [1]: inactive; negative | mutagenic call (Test System: AMES SALMONELLA TYPHIMURIUM, Strain/Indicator: TA98, Metabolic Activation: S-9, Method: STANDARD PLATE): inactive; negative | mutagenic call [3]: inactive; negative | mutagenic call (Test System: AMES SALMONELLA TYPHIMURIUM, Strain/Indicator: TA100, Metabolic Activation: S-9, Method: STANDARD PLATE): inactive; negative | mutagenic call [7]: inactive; negative | mutagenic call [8]: inactive; negative | mutagenic call (Test System: AMES SALMONELLA TYPHIMURIUM, Strain/Indicator: TA1537, Metabolic Activation: S-9, Method: STANDARD PLATE): inactive; negative | mutagenic call (Test System: CHINESE HAMSTER V-79, Strain/Indicator: V-79 (HGPRT)/6-THIOGUANINE, Metabolic Activation: NONE): inactive; negative | mutagenic call (Test System: CHINESE HAMSTER V-79, Strain/Indicator: V-79/6-THIOGUANINE, Metabolic Activation: NONE, Method: SUSPENSION/PLATE): active; positive | mutagenic call (Test System: CHINESE HAMSTER V-79, Strain/Indicator: V-79/6-THIOGUANINE, Metabolic Activation: RAT, LIVER, HEPATOCYTES, Method: SUSPENSION/PLATE): inactive; negative | mutagenic call (Test System: CHINESE HAMSTER V-79, Strain/Indicator: V-79/8-AZAGUANINE, Metabolic Activation: NONE, Method: STANDARD PLATE): active; positive | mutagenic call (Test System: E. COLI, Strain/Indicator: WP2 (HCR), Metabolic Activation: NONE, Method: STANDARD PLATE): active; positive | mutagenic call (Test System: E. COLI, Strain/Indicator: WP2 (HCR), Metabolic Activation: S-9, Method: STANDARD PLATE): active; positive | mutagenic call (Test System: MOUSE LYMPHOMA, Strain/Indicator: L5178Y (TK+/TK-), Metabolic Activation: NONE, Method: MICROWELL): active; positive | mutagenic call (Test System: MOUSE LYMPHOMA, Strain/Indicator: L5178Y (TK+/TK-), Metabolic Activation: NONE, Method: SUSPENSION/PLATE): active; positive | mutagenic call (Test System: MOUSE LYMPHOMA, Strain/Indicator: L5178Y (TK+/TK-), Metabolic Activation: S-9, Method: MICROWELL): active; positive

Nc1nc2ccc(O)cc2[nH]1
mutagenic call (Test System: AMES SALMONELLA TYPHIMURIUM, Strain/Indicator: TA98, Metabolic Activation: RAT, LIVER, S-9, AROCLOR 1254, Method: PREINCUBATION): active; positive | mutagenic call (Test System: AMES SALMONELLA TYPHIMURIUM, Strain/Indicator: TA100, Metabolic Activation: RAT, LIVER, S-9, AROCLOR 1254, Method: PREINCUBATION): inactive; negative

CCOCC(O)COc1ccc(NC(=O)CC[S+](C)C)cc1 (stereo unspecified)
mutagenic call [1]: inactive; negative | mutagenic call [2]: inactive; negative | mutagenic call [3]: inactive; negative | mutagenic call [4]: inactive; negative | mutagenic call [5]: inactive; negative | mutagenic call [6]: inactive; negative | mutagenic call [8]: inactive; negative | mutagenic call (Test System: AMES SALMONELLA TYPHIMURIUM, Strain/Indicator: TA1537, Metabolic Activation: RAT, LIVER, S-9, Method: STANDARD PLATE): inactive; negative | mutagenic call (Test System: AMES SALMONELLA TYPHIMURIUM, Strain/Indicator: TA1538, Metabolic Activation: NONE, Method: STANDARD PLATE): inactive; negative | mutagenic call (Test System: AMES SALMONELLA TYPHIMURIUM, Strain/Indicator: TA1538, Metabolic Activation: RAT, LIVER, S-9, Method: STANDARD PLATE): inactive; negative | mutagenic call (Test System: E. COLI, Strain/Indicator: WP2, Metabolic Activation: NONE, Method: STANDARD PLATE): inactive; negative | mutagenic call (Test System: E. COLI, Strain/Indicator: WP2, Metabolic Activation: RAT, LIVER, S-9, Method: STANDARD PLATE): inactive; negative | mutagenic call (Test System: E. COLI, Strain/Indicator: WP2 UVRA, Metabolic Activation: NONE, Method: STANDARD PLATE): inactive; negative | mutagenic call (Test System: E. COLI, Strain/Indicator: WP2 UVRA, Metabolic Activation: RAT, LIVER, S-9, Method: STANDARD PLATE): inactive; negative
